Assay results from patent publication US20110300529A1, “DETECTION OF IFI16 IN BODY FLUIDS” (NoToPharm srl, priority 2008, published 2011).

Assays:
[1] = system: Human Keratinocyte monolayers; test: Western blot analysis of extracellular IFI16 in supernatants of cells undergoing cell death; assay type: cell-based; conditions: 16 h after treatment, TCA-concentrated supernatant, immunoblotting
Description: (§1) Human Keratinocyte monolayers were UVB-irradiated at different doses (200, 400, and 800 J/m^2 respectively), treated with 2 μM Doxorubicin (Doxo) and 80 μM Etoposide (VP-16), or left untreated. At 16 h after treatment, the supernatant was collected and separated for determination of extracellular IFI16, while the remaining cells were lysed for determination of the intracellular cleaved form of PARP (determination of undergoing cell death). Collected supernatants were concentrated with TCA 25% as described in Example 4. […]
Supernatants of human primary keratinocytes cultured in serum-free medium (Epilife, Cascade Biologics, USA) were subjected to precipitation with trichloroacetic acid (TCA). Precipitated protein were analyzed by immunoblotting. […]
(§2) Migrated proteins were transferred to nitrocellulose. The membranes were blocked in TBS/0.05% Tween20/5% BSA and extracellular IFI16 was detected by incubation of the membrane bearing surnatants samples with anti-IFI16 mouse monoclonal antibody (clone 1G7, Santa Cruz, Calif., USA). The intracellular cleaved form of PARP was detected by incubation of the membrane bearing cell extract samples by rabbit anti-PARP cleaved antibody (GTX24830, GeneTex, CA, USA). […]

[2] = system: Human Keratinocyte monolayers; test: Intracellular cleaved form of PARP (determination of undergoing cell death) by immunoblotting; assay type: cell-based; conditions: 16 h after treatment, cell lysate
Description: as §1, with “4. An equal amount of total cellular protein per sample and an equal volume of concentrated supernatants were fractionated on SDS-PAGE (7.5% of NEXT GEL Amresco, OH, USA) and transferred to a nitrocellulose membrane (Biorad, CA, USA).” for “4.”
As control of the undergoing cell death induced by the treatment with UVB-irradiation and Doxo or VP-16, also the intracellular PARP cleavage was determined in the exposed keratinocyte. […]
as §2

| SMILES | presence of extracellular IFI16 in supernatants ([1]; 80 μM Etoposide) | cell death as demonstrated by PARP cleavage ([2]; 80 μM Etoposide) | presence of extracellular IFI16 in supernatants ([1]; 2 μM Doxorubicin) | cell death as demonstrated by PARP cleavage ([2]; 2 μM Doxorubicin) |
| --- | --- | --- | --- | --- |
| COc1cc([C@@H]2c3cc4c(cc3[C@@H](O[C@@H]3O[C@@H]5CO[C@@H](C)O[C@H]5[C@H](O)[C@H]3O)[C@H]3COC(=O)[C@H]23)OCO4)cc(OC)c1O [Etoposide] | not observed | chemically-induced cell death |  |  |
| COc1cccc2c1C(=O)c1c(O)c3c(c(O)c1C2=O)C[C@@](O)(C(=O)CO)C[C@@H]3O[C@H]1C[C@H](N)[C@H](O)[C@H](C)O1 [Doxorubicin] |  |  | not observed | chemically-induced cell death |
